According to patent US9980943B2, “Methods of treating muscular dystrophy” (BOARD OF REGENTS OF THE NEVADA SYSTEM OF HIGHER EDUCATION, …, priority 2013, dated 2018):

Key:
Type in all cases: cell-based, mouse
[1] = system: α7 integrin (LacZ reporter in α7βgal+/− myoblasts); assay: Myoblast α7+/LacZ integrin FDG assay (Burkin assay in myoblasts, 96-well); settings: α7+/LacZ myoblasts, 96-well
[2] = system: β-galactosidase in CMV-LacZ C2C12 myotubes; assay: CMV-LacZ secondary screen in C2C12 myotubes (β-Gal stabilizing assay); settings: C2C12 CMV-LacZ myotubes, fold relative to DMSO
Procedure, shortened: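 First, C2C12 myoblasts were transfected with a linearized CMV-LACZ vector and clonal lines selected by FDG β-gal assay. Then cells were exposed to compounds at 0.5, 1, 5, 10, 20 and 40 μM in 96-well format, two replicates each, and β-gal measured.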

[3] = system: α7 integrin (LacZ reporter in α7+/LacZ myotubes); assay: Myotube α7 integrin FDG assay (Burkin assay in myotubes, 96-well); settings: myotubes

Compound	Burkin Assay in Myoblasts, signal relative to DMSO ([1]; 0.5 uM)	Burkin Assay in Myoblasts, signal relative to DMSO ([1]; 1 uM)	Burkin Assay in Myoblasts, signal relative to DMSO ([1]; 5 uM)	Burkin Assay in Myoblasts, signal relative to DMSO ([1]; 10 uM)	Burkin Assay in Myoblasts, signal relative to DMSO ([1]; 20 uM)	Burkin Assay in Myoblasts, signal relative to DMSO ([1]; 40 uM)	CMV-LACZ in Myotubes, signal relative to DMSO ([2]; 5 uM)	CMV-LACZ in Myotubes, signal relative to DMSO ([2]; 10 uM)	CMV-LACZ in Myotubes, signal relative to DMSO ([2]; 20 uM)	CMV-LACZ in Myotubes, signal relative to DMSO ([2]; 40 uM)	Burkin Assay in Myotubes, α7 integrin LacZ reporter signal relative to DMSO ([3]; 0.5 uM)	Burkin Assay in Myotubes, α7 integrin LacZ reporter signal relative to DMSO ([3]; 1 uM)	Burkin Assay in Myotubes, α7 integrin LacZ reporter signal relative to DMSO ([3]; 5 uM)	Burkin Assay in Myotubes, α7 integrin LacZ reporter signal relative to DMSO ([3]; 10 uM)	Burkin Assay in Myotubes, α7 integrin LacZ reporter signal relative to DMSO ([3]; 20 uM)	Burkin Assay in Myotubes, α7 integrin LacZ reporter signal relative to DMSO ([3]; 40 uM)	Burkin Assay in Myoblasts, value relative to DMSO ([1]; 0.5 uM)	Burkin Assay in Myoblasts, value relative to DMSO ([1]; 1 uM)	Burkin Assay in Myoblasts, value relative to DMSO ([1]; 5 uM)	Burkin Assay in Myoblasts, value relative to DMSO ([1]; 10 uM)	also measured
Cn1c(=O)c2c(nc(Sc3ncnn3CC(=O)NC3CCCCC3)n2C)n(C)c1=O [MLS000663651-01]	1.143	1.059	0.9834	0.9551	0.9504	1.048	0.9636	0.9788	0.949	0.861	0.946	0.9099	1.106	1.007	1.017	0.9648	–	–	–	–	–
CCCCNS(=O)(=O)c1ccc2nc(-c3cccnc3)cc(C(=O)NCCOC)c2c1 [MLS000673766-01]	–	–	–	–	–	–	0.9847	0.9632	1.11	1.04	–	–	–	–	–	–	1.02	1.061	0.928	1.0253	Burkin Assay in Myoblasts, value relative to DMSO ([1]; 20 uM): 0.91; Burkin Assay in Myoblasts, value relative to DMSO ([1]; 40 uM): 0.9919; Burkin Assay in Myotubes (signal relative to DMSO) ([3]; 0.5 uM): 0.968; Burkin Assay in Myotubes (signal relative to DMSO) ([3]; 1 uM): 0.9862; Burkin Assay in Myotubes (signal relative to DMSO) ([3]; 5 uM): 0.896; Burkin Assay in Myotubes (signal relative to DMSO) ([3]; 10 uM): 0.9276; Burkin Assay in Myotubes (signal relative to DMSO) ([3]; 20 uM): 0.8272; Burkin Assay in Myotubes (signal relative to DMSO) ([3]; 40 uM): 0.8717
O=Cc1cn(Cc2ccc(F)cc2Cl)c2ccccc12 [MLS000676974-01]	–	–	–	–	–	–	1.077	0.4574	1.083	0.46	–	–	–	–	–	–	1.105	1.137	0.99	1.099	Burkin Assay in Myoblasts, value relative to DMSO ([1]; 20 uM): 0.6673; Burkin Assay in Myoblasts, value relative to DMSO ([1]; 40 uM): 0.5184; Burkin Assay in Myotubes (signal relative to DMSO) ([3]; 0.5 uM): 0.9171; Burkin Assay in Myotubes (signal relative to DMSO) ([3]; 1 uM): 0.9021; Burkin Assay in Myotubes (signal relative to DMSO) ([3]; 5 uM): 0.7009; Burkin Assay in Myotubes (signal relative to DMSO) ([3]; 10 uM): 0.5994; Burkin Assay in Myotubes (signal relative to DMSO) ([3]; 20 uM): 0.9758; Burkin Assay in Myotubes (signal relative to DMSO) ([3]; 40 uM): 0.5447
O=c1oc2c(-c3cccc(F)c3)cc(O)cc2s1 [MLS000680049-01]	0.9998	1.103	0.9693	0.9727	0.7493	0.6354	1.127	1.106	1.4405	0.4315	0.8875	1.056	1.047	1.22	0.8731	0.4379	–	–	–	–	–
